# Test results published in patent US11051515B2, “3-acyl-benzamides and their use as herbicides” (Bayer Aktiengesellschaft, priority 2017, dated 2021).
# How the values were obtained:
# ALOMY [1] = test: Pre-emergence action against ALOMY; format: in vivo, Alopecurus myosuroides; conditions: dosage 320 g/ha, pre-emergence, scored visually after 3 weeks vs untreated controls, 100% = plants have died, 0% = like control plants
# How it was run: (§1)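 Seeds sown in sandy loam in wood-fiber pots and covered with soil. Greenhouse growth; visual damage scored after 3 weeks versus untreated controls (100% = dead, 0% = like control).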
# PHBPU [2] = test: Post-emergence action against PHBPU; format: in vivo, Pharbitis purpurea; conditions: post-emergence, dosage 80 g/ha
# How it was run: (§2)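 Weeds grown in sandy loam in greenhouse, treated at one-leaf stage (2–3 weeks after sowing) with WP or EC formulations sprayed as aqueous suspension/emulsion at 600 to […] water with 0.2% wetting agent. Visual rating after about 3 weeks versus untreated controls, as % herbicidal action (100% = plants dead, 0% = like control).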
# AMARE [3] = test: Post-emergence action against AMARE; format: in vivo, Amaranthus retroflexus; conditions: post-emergence, dosage 80 g/ha, visual assessment about 3 weeks after treatment vs untreated controls
# How it was run: as §2
# AVEFA [4] = test: Pre-emergence action against AVEFA; format: in vivo, Avena fatua; conditions: dosage 320 g/ha, scored visually after 3 weeks vs untreated controls
# How it was run: as §1
# VERPE [5] = test: Post-emergence action against VERPE; format: in vivo, Veronica persica; conditions: dosage 80 g/ha
# How it was run: as §2
# AVEFA [6] = test: Post-emergence action against AVEFA; format: in vivo, Avena fatua; conditions: post-emergence, dosage 80 g/ha, visual assessment about 3 weeks after treatment vs untreated controls
# How it was run: as §2
# MATIN [7] = test: Post-emergence action against MATIN; format: in vivo, Matricaria inodora; conditions: post-emergence, dosage 80 g/ha, visual assessment about 3 weeks after treatment vs untreated controls
# How it was run: as §2
# VIOTR [8] = test: Pre-emergence action against VIOTR; format: in vivo, Viola tricolor; conditions: Dosage 320 g/ha, pre-emergence
# How it was run: as §1
# ALOMY [9] = test: Post-emergence action against ALOMY; format: in vivo, Alopecurus myosuroides; conditions: Dosage 80 g/ha, post-emergence
# How it was run: as §2
# ECHCG [10] = test: Pre-emergence action against ECHCG; format: in vivo, Echinochloa crus-galli; conditions: pre-emergence, dosage 320 g/ha, scored visually after 3 weeks vs untreated controls
# How it was run: as §1
# VERPE [11] = test: Pre-emergence action against VERPE; format: in vivo, Veronica persica; conditions: Dosage 320 g/ha, pre-emergence
# How it was run: as §1
# SETVI [12] = test: Post-emergence action against SETVI; format: in vivo, Setaria viridis; conditions: post-emergence, dosage 80 g/ha, visual assessment about 3 weeks after treatment vs untreated controls
# How it was run: as §2
# ABUTH [13] = test: Post-emergence action against ABUTH; format: in vivo, Abutilon theophrasti; conditions: post-emergence, dosage 80 g/ha, visual assessment about 3 weeks after treatment vs untreated controls
# How it was run: as §2
# CYPES [14] = test: Post-emergence action against CYPES; format: in vivo, Cyperus esculentus; conditions: Cyperus esculentus, 504 h; post-emergence, dosage 80 g/ha, visual assessment about 3 weeks after treatment vs untreated controls; read-out: Post-emergence action against CYPES (herbicidal action in percent)
# How it was run: as §2
# SETVI [15] = test: Pre-emergence action against SETVI; format: in vivo, Setaria viridis; conditions: pre-emergence, dosage 320 g/ha, scored visually after 3 weeks vs untreated controls
# How it was run: as §1
# MATIN [16] = test: Pre-emergence action against MATIN; format: in vivo, Matricaria inodora; conditions: Dosage 320 g/ha, pre-emergence
# How it was run: as §1
# ECHCG [17] = test: Post-emergence action against ECHCG; format: in vivo, Echinochloa crus-galli; conditions: post-emergence, dosage 80 g/ha, visual assessment about 3 weeks after treatment vs untreated controls
# How it was run: as §2
# POLCO = test: Post-emergence action against POLCO; format: in vivo, Polygonum convolvulus; conditions: post-emergence, dosage 80 g/ha
# How it was run: as §2
# PHBPU [18] = test: Pre-emergence action against PHBPU; format: in vivo, Pharbitis purpurea; conditions: Dosage 320 g/ha, pre-emergence
# How it was run: as §1
# LOLMU = test: Post-emergence action against LOLMU; format: in vivo, Lolium multiflorum; conditions: Lolium multiflorum, 504 h, dosage 80 g/ha, visual assessment about 3 weeks after treatment vs untreated controls, read-out: Post-emergence action against LOLMU (herbicidal action in percent)
# Experimental: Seeds of monocotyledonous and dicotyledonous weed and crop plants are laid out in sandy loam soil in wood-fiber pots, covered with soil and cultivated in a greenhouse under good growth conditions. 2 to 3 weeks after sowing, the test plants are treated at the one-leaf stage. The compounds of the invention, formulated in the form of wettable powders (WP) or as emulsion concentrates (EC), are then sprayed onto the green parts of the plants in the form of an aqueous suspension or emulsion at a water application rate equating to […], with addition of 0.2% wetting agent. After the test plants have been left to stand in the greenhouse under optimal growth conditions for about 3 weeks, the action of the preparations is assessed visually in comparison to untreated controls (herbicidal action in percent (%): 100% activity=the plants have died, 0% activity=like control plants). […] At the same time, inventive compounds leave Gramineae crops such as barley, wheat, rye, millet/Sorghum, corn or rice virtually undamaged when applied post-emergence, even at high active ingredient dosages. In addition, some substances are also harmless to dicotyledonous crops such as soya, cotton, oilseed rape, sugar beet or potatoes. Some of the compounds according to the invention have high selectivity and are therefore suitable for controlling unwanted vegetation in agricultural crops by the post-emergence method. The data of Tables B18 to B34 below illustrate, in an exemplary manner, the […] herbicidal action of the compounds according to the invention, the herbicidal activity being stated in percent.
# ABUTH [19] = test: Pre-emergence action against ABUTH; format: in vivo, Abutilon theophrasti; conditions: pre-emergence, dosage 320 g/ha, scored visually after 3 weeks vs untreated controls
# How it was run: as §1
# CYPES [20] = test: Pre-emergence action against CYPES; format: in vivo, Cyperus esculentus; conditions: Cyperus esculentus, 504 h; pre-emergence, dosage 320 g/ha, scored visually after 3 weeks vs untreated controls; read-out: Pre-emergence action against CYPES (herbicidal activity)
# How it was run: as §1
# STEME [21] = test: Post-emergence action against STEME; format: in vivo, Stellaria media; conditions: post-emergence, dosage 80 g/ha
# How it was run: as §2
# VIOTR [22] = test: Post-emergence action against VIOTR; format: in vivo, Viola tricolor; conditions: post-emergence, dosage 80 g/ha
# How it was run: as §2
# AMARE [23] = test: Pre-emergence action against AMARE; format: in vivo, Amaranthus retroflexus; conditions: pre-emergence, dosage 320 g/ha, scored visually after 3 weeks vs untreated controls
# How it was run: as §1
# LOLRI = test: Pre-emergence action against LOLRI; format: in vivo, Lolium rigidum; conditions: dosage 320 g/ha, scored visually after 3 weeks vs untreated controls
# How it was run: as §1
# HORMU = test: Pre-emergence action against HORMU; format: in vivo, Hordeum murinum; conditions: Dosage 320 g/ha
# How it was run: as §1
# DIGSA [24] = test: Post-emergence action against DIGSA; format: in vivo, Digitaria sanguinalis; conditions: dosage 80 g/ha, visual assessment about 3 weeks after treatment vs untreated controls
# How it was run: as §2
# STEME [25] = test: Pre-emergence action against STEME; format: in vivo, Stellaria media; conditions: Dosage 320 g/ha, pre-emergence
# How it was run: as §1
# DIGSA [26] = test: Pre-emergence action against DIGSA; format: in vivo, Digitaria sanguinalis; conditions: dosage 320 g/ha, scored visually after 3 weeks vs untreated controls
# How it was run: as §1
smiles,measurement,setting,value
CCC(=O)c1c(C(F)(F)F)ccc(C(=O)Nc2nnnn2C)c1Cl [1-138],pest or weed control at 320 g/ha,"ALOMY [1]; Alopecurus myosuroides, 504 h, read-out: Pre-emergence action against ALOMY (herbicidal activity in percent)",100%
same,pest or weed control at 80 g/ha,"PHBPU [2]; Ipomoea purpurea, 504 h",100%
same,pest or weed control at 80 g/ha,"AMARE [3]; Amaranthus retroflexus, 504 h, read-out: Post-emergence action against AMARE (herbicidal action in percent)",80%
same,pest or weed control at 320 g/ha,"AVEFA [4]; Avena fatua, 504 h, read-out: Pre-emergence action against AVEFA (herbicidal activity)",100%
same,pest or weed control at 80 g/ha,"VERPE [5]; Veronica persica, 504 h",90%
same,pest or weed control at 80 g/ha,"AVEFA [6]; Avena fatua, 504 h, read-out: Post-emergence action against AVEFA (herbicidal action in percent)",100%
same,pest or weed control at 80 g/ha,"MATIN [7]; Tripleurospermum inodorum, 504 h, read-out: Post-emergence action against MATIN (herbicidal action in percent)",100%
same,pest or weed control at 320 g/ha,"VIOTR [8]; Viola tricolor, 504 h",100%
same,pest or weed control at 80 g/ha,"ALOMY [9]; Alopecurus myosuroides, 504 h",100%
same,pest or weed control at 320 g/ha,"ECHCG [10]; Echinochloa crus-galli, 504 h, read-out: Pre-emergence action against ECHCG (herbicidal activity)",100%
same,pest or weed control at 320 g/ha,"VERPE [11]; Veronica persica, 504 h",100%
same,pest or weed control at 80 g/ha,"SETVI [12]; Setaria viridis, 504 h, read-out: Post-emergence action against SETVI (herbicidal action in percent)",90%
same,pest or weed control at 80 g/ha,"ABUTH [13]; Abutilon theophrasti, 504 h, read-out: Post-emergence action against ABUTH (herbicidal action in percent)",80%
same,pest or weed control at 80 g/ha,CYPES [14],90%
same,pest or weed control at 320 g/ha,"SETVI [15]; Setaria viridis, 504 h, read-out: SETVI (Table B8, pre-emergence herbicidal activity)",100%
same,pest or weed control at 320 g/ha,"MATIN [16]; Tripleurospermum inodorum, 504 h",100%
same,pest or weed control at 80 g/ha,"ECHCG [17]; Echinochloa crus-galli, 504 h, read-out: Post-emergence action against ECHCG (herbicidal action in percent)",90%
same,pest or weed control at 80 g/ha,"POLCO; Fallopia convolvulus, 504 h",80%
same,pest or weed control at 320 g/ha,"PHBPU [18]; Ipomoea purpurea, 504 h",90%
same,pest or weed control at 80 g/ha,LOLMU,100%
same,pest or weed control at 320 g/ha,"ABUTH [19]; Abutilon theophrasti, 504 h, read-out: Pre-emergence action against ABUTH (herbicidal activity)",100%
same,pest or weed control at 320 g/ha,CYPES [20],100%
same,pest or weed control at 80 g/ha,"STEME [21]; Stellaria media, 504 h",100%
same,pest or weed control at 80 g/ha,"VIOTR [22]; Viola tricolor, 504 h",100%
same,pest or weed control at 320 g/ha,"AMARE [23]; Amaranthus retroflexus, 504 h, read-out: Pre-emergence action against AMARE (herbicidal activity)",100%
CCCC(=O)c1c(C(F)(F)F)ccc(C(=O)Nc2nnnn2CC)c1C [2-16],Pre-emergence action against LOLRI (herbicidal activity),LOLRI,90%
same,Pre-emergence action against ALOMY (herbicidal activity in percent),ALOMY [1],90%
same,Post-emergence action against PHBPU,PHBPU [2],100
same,Post-emergence action against AMARE (herbicidal action in percent),AMARE [3],100%
same,Pre-emergence action against AVEFA (herbicidal activity),AVEFA [4],90%
same,Post-emergence action against VERPE,VERPE [5],80
same,Post-emergence action against AVEFA (herbicidal action in percent),AVEFA [6],90%
same,Post-emergence action against MATIN (herbicidal action in percent),MATIN [7],100%
same,Pre-emergence action against VIOTR,VIOTR [8],90%
same,Post-emergence action against ALOMY,ALOMY [9],80%
same,Pre-emergence action against ECHCG (herbicidal activity),ECHCG [10],100%
same,Pre-emergence action against VERPE,VERPE [11],100%
same,Pre-emergence action against HORMU,HORMU,80%
same,Post-emergence action against DIGSA (herbicidal action in percent),DIGSA [24],90%
same,Post-emergence action against SETVI (herbicidal action in percent),SETVI [12],90%
same,Post-emergence action against ABUTH (herbicidal action in percent),ABUTH [13],100%
same,"SETVI (Table B8, pre-emergence herbicidal activity)",SETVI [15],90%
same,Pre-emergence action against MATIN,MATIN [16],90%
same,Post-emergence action against ECHCG (herbicidal action in percent),ECHCG [17],90%
same,Pre-emergence action against STEME,STEME [25],90%
same,Post-emergence action against POLCO,POLCO,80
same,Pre-emergence action against PHBPU,PHBPU [18],90%
same,Pre-emergence action against ABUTH (herbicidal activity),ABUTH [19],100%
same,Post-emergence action against STEME,STEME [21],100
same,Post-emergence action against VIOTR,VIOTR [22],100
same,Pre-emergence action against DIGSA (herbicidal activity),DIGSA [26],100%
same,Pre-emergence action against AMARE (herbicidal activity),AMARE [23],100%
